In patent US10981911B2, “Imidazopyrrolopyridine as inhibitors of the JAK family of kinases” (Janssen Pharmaceutica NV, priority 2016, dated 2021):
Like-named read-outs stand apart in the source and are kept apart here.

Key:
[1] = In vivo p.o. dosing: plasma and colon tissue concentrations (Protocols 1 and 2); design: species or system female C57BL/6 mice; details: female, C57BL/6, mouse, po, mice, 25 mg/kg p.o.
Method: These protocols are described below under the heading In vivo Studies. Three non-fasted female C57BL/6 mice were orally administered test compound at a dose of 25 mg/kg p.o. as a solution in 20% hydroxypropyl-beta-cyclodextrin (HPβCD) at a dose volume of 5 mL/kg. Blood samples were collected at 0.5, 2, and 4 h post dose via retro-orbital bleed or venipuncture of the dorsal metatarsal vein. Blood samples were collected into tubes containing anticoagulant (Heparin-Na) and placed on wet ice. The plasma fraction was separated by centrifugation and frozen at −20° C. for up to 4 h and −80° C. after 4 h unless analyzed shortly after sample collection. Colon samples were collected at 4 h post dose. […] The colon was further washed by putting it in 5 mL of saline and shaken for 5 seconds. The colon sample was then patted dry, weighed, and homogenized as 1 part tissue (g) to 4 parts HPLC grade water (mL). Concentrations of the compound in plasma and colon homogenate were determined using a qualified liquid chromatography-triple quadrupole mass spectrometry (LC-MS/MS) method. […] Three non-fasted female C57BL/6 mice were orally administered test compound at a dose of 25 mg/kg p.o. as a solution in 20% HPβCD at a dose volume of 5 mL/kg. Blood samples were collected at 0.5, 2, and 4 h post dose via retro-orbital bleed or dorsal metatarsal vein. Blood samples were collected into tubes containing anticoagulant (Heparin-Na) and placed on wet ice. The plasma fraction was separated by centrifugation and frozen at −20° C. for up to 4 h and −80° C. after 4 h unless analyzed shortly after sample collection. Colon samples were collected at 4 h post dose. From 2 cm below the cecum, a 4 cm sample of the colon was dissected, cut open on the longitudinal axis, and the solid contents removed by flushing with 2 mL of saline. The colon was further washed by putting it in 5 mL of saline and shaken for 5 seconds. The colon sample was then patted dry, weighed, and homogenized as 1 part tissue (g) to 4 parts HPLC grade water (mL). Concentrations of the compound in plasma and colon homogenate were determined using a qualified liquid chromatography-triple quadrupole mass spectrometry (LC-MS/MS) method.

[2] = Solubility assays in simulated gastric and simulated intestinal fluids; format: physicochemical; details: thermodynamic from solid, 2-5 days
Method: Test compounds were dissolved in DMSO at a concentration of 10 mM. The test compounds were dispensed (20 μL) into Nunc 1-mL-96-Deep-Well-PP plates, and the DMSO was evaporated via nitrogen blow down from a TurboVap 96 for 6 hours or until a dry residue was produced. Then, 400 μL of solubility media was added to the well containing the dry solid. […] After the incubation period, the samples were filtered through an AcroPrep 1-mL-96-Filter plate into a new 2-mL-96-Deep-Well-PP plate, and the supernatants were quantified by UV-HPLC using a 3-point calibration ranging from 0.004-0.55 mM. The solubility for each compound was calculated from the following equation: […] Solubilities are reported as long as the compound under study was sufficiently stable to complete the corresponding solubility determination.

IFNα pSTAT4 (JAK1/TYK2) = IFNα pSTAT4 (JAK1/TYK2) cellular assay (AlphaLISA, PBMCs); format: cell-based; details: PBMC, IFNα at 4 ng/mL
Method: The AlphaLISA assay (based on Alpha Technology from PerkinElmer) was performed by first plating freshly thawed PBMCs (Biological Specialty Corporation) in 384-well plates at 100,000 cells per 6 μL per well in DMEM (Dulbecco's Modified Eagle Medium) containing 10% FBS (fetal bovine serum) and 1,000 I.U./mL penicillin and 1,000 μg/mL streptomycin. The cells were then treated with 2 μL/well of compounds diluted in DMSO at half-log titrated concentrations, with a highest test concentration of 10 μM and 0.5% final DMSO concentration, for thirty minutes at 37° C. Next, the cells were stimulated with 2 μL/well of IFNα (PBL Assay Science Cat. No. 11101-2) at 4 ng/mL for thirty minutes at 37° C. The cellular reactions were terminated by the addition of 2 μL/well of lysis buffer (PerkinElmer Cat. No. ALSU-PST4-A10K) followed by an incubation of five minutes at room temperature. 4 μL/well of acceptor mix (PerkinElmer Cat. No. ALSU-PST4-A10K) was added to the cells and incubated in the dark for one hour at room temperature. Then, 4 μL/well of donor mix (PerkinElmer Cat. No. ALSU-PST4-A10K) was added to the cells and incubated in the dark overnight at room temperature. Finally, the plates were read on a PerkinElmer EnVision for detection of the time-resolved fluorescence signal. The percentage of IFNα-dependent pSTAT4 inhibition was determined at the compound test concentrations; and for each compound, a dose curve was generated and the IC50 was calculated. Compound IC50 was calculated by nonlinear regression, sigmoidal dose response analysis of the half-log dilution titration curve of the compound concentration vs. Alpha signal. The term “Alpha” is defined in the immediately preceding cellular assay description.

IL-2 pSTAT5 (JAK1/JAK3) = IL-2 pSTAT5 (JAK1/JAK3) cellular assay (AlphaLISA, PBMCs); format: cell-based; details: PBMC, IL-2 at 5 ng/mL
Method: The AlphaLISA assay (based on Alpha Technology from PerkinElmer) was performed by first plating freshly thawed PBMCs (Biological Specialty Corporation) in 384-well plates at 30,000 cells per 4 μL per well in HBSS (Hanks' Balanced Salt Solution) containing 0.1% IgG (immunoglobulin G)-free, protease-free BSA (bovine serum albumin) (Jackson ImmunoResearch Cat. No. 001-000-161). The cells were then treated with 2 μL/well of compounds diluted in DMSO at half-log titrated concentrations, with a highest test concentration of 10 μM and 0.5% final DMSO concentration, for thirty minutes at 37° C. […] Compound IC50 was calculated by nonlinear regression, sigmoidal dose response analysis of the half-log dilution titration curve of the compound concentration vs. Alpha signal. The acronym “Alpha” stands for amplified luminescent proximity homogeneous assay; the Alpha signal is a luminescent/fluorescent signal.

[3] = colon, read-out: Colon Concentration After p.o. Dosing, Mean
[4] = plasma, read-out: Plasma Concentration After p.o. Dosing, Mean
[5] = simulated gastric fluid, ambient temperature, read-out: SGF solubility
[6] = fassif, simulated intestinal fluid, fasted state pH 6.5, ambient temperature, read-out: SIF solubility

Molecule `CC(C)(O)CNC(=O)Cc1nc2cnc3[nH]ccc3c2n1[C@H]1CC[C@H](CC#N)CC1` [Ex. 1, 2-(1-((1r,4r)-4-(Cyanomethyl)cyclohexyl)-1,6-dihydroimidazo[4,5-d]pyrrolo[2,3-b]pyridin-2-yl)-N-(2-hydroxy-2-methylpropyl)acetamide] has a concentration at 4 h [1, 3] of 8590 ng/g, a concentration at 0.5 h [1, 4] of 13.4 ng/mL and a concentration at 2 h [1, 4] of 6.1 ng/mL. For the same molecule, the concentration at 4 h [1, 4] was 3.3 ng/mL and the solubility [2, 5] was > 400 µM.

For `N#CCC1CCC(n2c(-c3c[nH]cn3)nc3cnc4[nH]ccc4c32)CC1` (centres unmarked) [Ex. 2, 2-((1r,4r)-4-(2-(1H-Imidazol-4-yl)imidazo[4,5-d]pyrrolo[2,3-b]pyridin-1(6H)-yl)cyclohexyl)acetonitrile], the concentration at 4 h [1, 3] was 7600 ng/g, the concentration at 0.5 h [1, 4] was 24.5 ng/mL and the concentration at 2 h [1, 4] was 4.2 ng/mL. The concentration at 4 h [1, 4] was 1.3 ng/mL, the solubility [2, 6] was > 400 µM and the solubility [2, 5] was > 400 µM. For the same molecule, the IC50 (IFNα pSTAT4 (JAK1/TYK2)) was 0.0208 µM and the IC50 (IL-2 pSTAT5 (JAK1/JAK3)) was 0.009 µM.

With `N#CC[C@H]1CC[C@H](n2c(CC(=O)NCC3CC3)nc3cnc4[nH]ccc4c32)CC1` [Ex. 3, 2-(1-((1r,4r)-4-(Cyanomethyl)cyclohexyl)-1,6-dihydroimidazo[4,5-d]pyrrolo[2,3-b]pyridin-2-yl)-N-(cyclopropylmethyl)acetamide] the concentration at 4 h [1, 3] was 2150 ng/g, the concentration at 0.5 h [1, 4] was 41.4 ng/mL and the concentration at 2 h [1, 4] was 3.9 ng/mL. For the same molecule, the concentration at 4 h [1, 4] was 1.5 ng/mL, the solubility [2, 6] was > 400 µM and the solubility [2, 5] was > 400 µM. It also gave an IC50 (IFNα pSTAT4 (JAK1/TYK2)) of 0.0101 µM and an IC50 (IL-2 pSTAT5 (JAK1/JAK3)) of 0.0064 µM.

`N#CCCNC(=O)Cc1nc2cnc3[nH]ccc3c2n1[C@H]1CC[C@H](CC#N)CC1` [Ex. 4, N-(2-Cyanoethyl)-2-(1-((1r,4r)-4-(cyanomethyl)cyclohexyl)-1,6-dihydroimidazo[4,5-d]pyrrolo[2,3-b]pyridin-2-yl)acetamide] showed a concentration at 4 h [1, 3] of 4450 ng/g, a concentration at 0.5 h [1, 4] of 12.9 ng/mL and a concentration at 2 h [1, 4] of 7.5 ng/mL. For the same molecule, the concentration at 4 h [1, 4] was 3.3 ng/mL, the solubility [2, 6] was > 400 µM and the solubility [2, 5] was > 400 µM. It also gave an IC50 (IFNα pSTAT4 (JAK1/TYK2)) of 0.0647 µM and an IC50 (IL-2 pSTAT5 (JAK1/JAK3)) of 0.0355 µM.

With `N#CC[C@H]1CC[C@H](n2c(CC(=O)NC3CCOCC3)nc3cnc4[nH]ccc4c32)CC1` [Ex. 5, 2-(1-((1r,4r)-4-(Cyanomethyl)cyclohexyl)-1,6-dihydroimidazo[4,5-d]pyrrolo[2,3-b]pyridin-2-yl)-N-(tetrahydro-2H-pyran-4-yl)acetamide] the concentration at 4 h [1, 3] was 5330 ng/g, the concentration at 0.5 h [1, 4] was 31.9 ng/mL and the concentration at 2 h [1, 4] was 8.8 ng/mL. The concentration at 4 h [1, 4] was 6 ng/mL, the solubility [2, 5] was > 400 µM and the IC50 (IFNα pSTAT4 (JAK1/TYK2)) was 0.0381 µM. For the same molecule, the IC50 (IL-2 pSTAT5 (JAK1/JAK3)) was 0.0064 µM.

`N#CC[C@H]1CC[C@H](n2c(CC(=O)NCC3CCOCC3)nc3cnc4[nH]ccc4c32)CC1` [Ex. 10, 2-(1-((1r,4r)-4-(Cyanomethyl)cyclohexyl)-1,6-dihydroimidazo[4,5-d]pyrrolo[2,3-b]pyridin-2-yl)-N-((tetrahydro-2H-pyran-4-yl)methyl)acetamide] showed a concentration at 4 h [1, 3] of 11700 ng/g, a concentration at 0.5 h [1, 4] of 18.8 ng/mL and a concentration at 2 h [1, 4] of 3 ng/mL. For the same molecule, the concentration at 4 h [1, 4] was 1.7 ng/mL, the solubility [2, 6] was > 400 µM and the solubility [2, 5] was > 400 µM. For the same molecule, the IC50 (IFNα pSTAT4 (JAK1/TYK2)) was 0.0394 µM and the IC50 (IL-2 pSTAT5 (JAK1/JAK3)) was 0.0067 µM.

In the case of `CC(C)(C#N)CNC(=O)Cc1nc2cnc3[nH]ccc3c2n1[C@H]1CC[C@H](CC#N)CC1` [Ex. 22, N-(2-Cyano-2-methylpropyl)-2-(1-((1r,4r)-4-(cyanomethyl)cyclohexyl)-1,6-dihydroimidazo[4,5-d]pyrrolo[2,3-b]pyridin-2-yl)acetamide], the concentration at 4 h [1, 3] is reported as 12000 ng/g, the concentration at 0.5 h [1, 4] is reported as 47 ng/mL and the concentration at 2 h [1, 4] is reported as 9.6 ng/mL. The concentration at 4 h [1, 4] was 5 ng/mL, the solubility [2, 5] was > 400 µM and the IC50 (IFNα pSTAT4 (JAK1/TYK2)) was 0.0385 µM. For the same molecule, the IC50 (IL-2 pSTAT5 (JAK1/JAK3)) was 0.0097 µM.

Molecule `N#CC[C@H]1CC[C@H](n2c(CC(=O)NCC3(O)CCC3)nc3cnc4[nH]ccc4c32)CC1` [Ex. 34, 2-(1-((1r,4r)-4-(Cyanomethyl)cyclohexyl)-1,6-dihydroimidazo[4,5-d]pyrrolo[2,3-b]pyridin-2-yl)-N-((1-hydroxycyclobutyl)methyl)acetamide] has a concentration at 4 h [1, 3] of 7400 ng/g, a concentration at 0.5 h [1, 4] of 43.1 ng/mL and a concentration at 2 h [1, 4] of 5.4 ng/mL. For the same molecule, the concentration at 4 h [1, 4] was 2.6 ng/mL, the solubility [2, 6] was > 400 µM and the solubility [2, 5] was > 400 µM. It also gave an IC50 (IFNα pSTAT4 (JAK1/TYK2)) of 0.0428 µM and an IC50 (IL-2 pSTAT5 (JAK1/JAK3)) of 0.0206 µM.

Work on `N#CCC12CCC(NC(=O)Cc3nc4cnc5[nH]ccc5c4n3[C@H]3CC[C@H](CC#N)CC3)(CC1)C2` [Ex. 55, N-(4-(Cyanomethyl)bicyclo[2.2.1]heptan-1-yl)-2-(1-((1r,4r)-4-(cyanomethyl)cyclohexyl)-1,6-dihydroimidazo[4,5-d]pyrrolo[2,3-b]pyridin-2-yl)acetamide] yielded a concentration at 4 h [1, 3] of 3000 ng/g, a concentration at 0.5 h [1, 4] of 26.6 ng/mL and a concentration at 2 h [1, 4] of 3.2 ng/mL. For the same molecule, the concentration at 4 h [1, 4] was 3.1 ng/mL, the solubility [2, 5] was > 400 µM and the IC50 (IFNα pSTAT4 (JAK1/TYK2)) was 0.0404 µM. The IC50 (IL-2 pSTAT5 (JAK1/JAK3)) was 0.0168 µM.

With `N#CC[C@H]1CC[C@H](n2c(CC(=O)NCC3(O)CC3)nc3cnc4[nH]ccc4c32)CC1` [Ex. 85, 2-(1-((1r,4r)-4-(Cyanomethyl)cyclohexyl)-1,6-dihydroimidazo[4,5-d]pyrrolo[2,3-b]pyridin-2-yl)-N-((1-hydroxycyclopropyl)methyl)acetamide] the concentration at 4 h [1, 3] was 5880 ng/g, the concentration at 0.5 h [1, 4] was 15.6 ng/mL and the concentration at 2 h [1, 4] was 4.2 ng/mL. For the same molecule, the concentration at 4 h [1, 4] was 2.3 ng/mL, the solubility [2, 6] was > 400 µM and the solubility [2, 5] was > 400 µM. For the same molecule, the IC50 (IFNα pSTAT4 (JAK1/TYK2)) was 0.0814 µM and the IC50 (IL-2 pSTAT5 (JAK1/JAK3)) was 0.0139 µM.
